Assay results published in ChEMBL document CHEMBL5108027, “An unanticipated discovery of novel naphthalimidopropanediols as potential broad-spectrum antibacterial members” (Eur J Med Chem, 2022).
In brackets after ≈: the same amount, converted by molar mass. Activity calls are given as the source filed them. The rule behind the calls is not given here.

How the values were obtained:
Staphylococcus aureus [1] = assay: Antibacterial activity against methicillin-resistant Staphylococcus aureus N315 measured by Muller-Hinton broth based microdilution assay; format: functional
Enterococcus faecalis = assay: Antibacterial activity against Enterococcus faecalis measured by Muller-Hinton broth based microdilution assay; format: functional
Staphylococcus aureus [2] = assay: Antibacterial activity against Staphylococcus aureus measured by Muller-Hinton broth based microdilution assay; format: functional
Staphylococcus aureus [3] = assay: Antibacterial activity against Staphylococcus aureus ATCC 25923 measured by Muller-Hinton broth based microdilution assay; format: functional
Staphylococcus aureus [4] = assay: Antibacterial activity against Staphylococcus aureus ATCC 29213 measured by Muller-Hinton broth based microdilution assay; format: functional
Klebsiella pneumoniae = assay: Antibacterial activity against Klebsiella pneumoniae measured by Muller-Hinton broth based microdilution assay; format: functional
Escherichia coli [5] = assay: Antibacterial activity against Escherichia coli measured by Muller-Hinton broth based microdilution assay; format: functional
Pseudomonas aeruginosa [6] = assay: Antibacterial activity against Pseudomonas aeruginosa measured by Muller-Hinton broth based microdilution assay; format: functional
Acinetobacter baumannii = assay: Antibacterial activity against Acinetobacter baumannii measured by Muller-Hinton broth based microdilution assay; format: functional
Pseudomonas aeruginosa [7] = assay: Antibacterial activity against Pseudomonas aeruginosa ATCC 27853 measured by Muller-Hinton broth based microdilution assay; format: functional
Escherichia coli [8] = assay: Antibacterial activity against Escherichia coli ATCC 25922 measured by Muller-Hinton broth based microdilution assay; format: functional
[9] = Hemolytic activity in human RBC measured after 1 hr; format: toxicity, cell-based, Erythrocyte; settings: human red blood cells (erythrocytes)
[10] = Selectivity ratio of HC50 for hemolytic activity in human RBC to MIC for antibacterial activity against Staphylococcus aureus; format: toxicity; settings: human red blood cells (erythrocytes)
[11] = Hemolytic activity in human RBC assessed as hemolytic rate at 2 to 512 ug/ml and measured after 1 hr; format: toxicity, cell-based, Erythrocyte; settings: human red blood cells (erythrocytes), at 2 to 512 µg/mL, dose 2-512 µg/ml, read-out: Activity
Staphylococcus aureus [12] = assay: Antibacterial activity against Staphylococcus aureus measured after 16 passages by resistance development assay; format: functional, organism-based
Staphylococcus aureus [13] = assay: Inhibition of bacterial growth of Staphylococcus aureus at 1 to 2 times MIC; format: functional
Staphylococcus aureus [14] = assay: Bactericidal activity against Staphylococcus aureus assessed as reduction in number of colonies at 0.5 to 2 times MIC measured within 6 hrs by time-kill assay; format: functional, organism-based
Staphylococcus aureus [15] = assay: Induction of membrane depolarization in Staphylococcus aureus at 0.5 to 2 times MIC measured upto 1 hr by DiSC35 dye-based fluorescence assay; format: functional, organism-based
Staphylococcus aureus [16] = assay: Induction of inner membrane permeabilization in Staphylococcus aureus by measuring increase in fluorescence intensity at 1 to 8 times MIC by calcein-AM/PI staining based fluorescence analysis; format: functional, organism-based
Staphylococcus aureus [17] = assay: Disruption of membrane integrity in Staphylococcus aureus at 8 times MIC by calcein-AM/PI staining based fluorescence analysis; format: functional, organism-based
Staphylococcus aureus [18] = assay: Antibacterial activity against Staphylococcus aureus assessed as deformed and shriveled cell structures at 1 to 2 ug/ml measured by SEM analysis; format: functional, organism-based; settings: dose 1-2 µg/ml
Escherichia coli [19] = assay: Antibacterial activity against Escherichia coli assessed as deformed and shriveled cell structures at 8 to 16 ug/ml measured by SEM analysis; format: functional, organism-based; settings: dose 8-16 µg/ml
Staphylococcus aureus [20] = assay: Antibacterial activity against Staphylococcus aureus assessed as lysed debris at 1 to 2 ug/ml measured by SEM analysis; format: functional, organism-based; settings: dose 1-2 µg/ml
Escherichia coli [21] = assay: Antibacterial activity against Escherichia coli assessed as lysed debris at 8 to 16 ug/ml measured by SEM analysis; format: functional, organism-based; settings: dose 8-16 µg/ml
Staphylococcus aureus [22] = assay: Disruption of membrane integrity in Staphylococcus aureus assessed as increase in nucleic acid leakage by measuring increase in absorbance 1 to 8 times MIC measured for 6 hrs by spectrophotometry; format: functional, organism-based
Staphylococcus aureus [23] = assay: Disruption of membrane integrity in Staphylococcus aureus assessed as increase in protein leakage by measuring increase in absorbance 1 to 8 times MIC measured for 6 hrs by Bradford assay; format: functional, organism-based
Staphylococcus aureus [24] = assay: Antibacterial activity against Staphylococcus aureus assessed as reduction in LDH activity at 1 to 8 times MIC measured after 6 hrs by microplate reader method; format: functional; set-up: scale not given: the % may be the effect or the level left
Staphylococcus aureus [25] = assay: Induction of oxidative stress in Staphylococcus aureus assessed as increase in intracellular ROS level at 1 to 8 times MIC measured after 6 hrs by DCFH-DA staining method; format: functional, organism-based
Staphylococcus aureus [26] = assay: Induction of oxidative stress in Staphylococcus aureus assessed as decrease in GSH activity at 1 to 8 times MIC measured after 6 hrs by Ellman's assay; format: functional, organism-based
Staphylococcus aureus [27] = assay: Antibacterial activity against Staphylococcus aureus assessed as reduction in metabolic activity at 1 to 8 times MIC measured after 6 hrs by Alamar blue assay; format: functional, organism-based
Staphylococcus aureus [28] = assay: Inhibition of biofilm formation in Staphylococcus aureus at 1 to 8 times MIC measured after 24 hrs by crystal violet staining method; format: functional, organism-based
Staphylococcus aureus [29] = assay: Antibiofilm activity in Staphylococcus aureus at 1 to 8 times MIC measured by Alamar blue assay; format: functional, organism-based
L929 = assay: Cytotoxicity against mouse L929 cells assessed as effect on cell growth at 0.25 to 0.5 ug/ml incubated for 24 hrs by MTT assay; format: toxicity, cell-based; settings: l929, 24 h, dose 0.25-0.5 µg/ml
[30] = Toxicity in systemic sepsis mouse model infected with Staphylococcus aureus assessed as effect on liver morphology at 2.5 to 5 mg/kg administered every 12 hrs for 3 days and measured by H and E staining-based assay; format: organism-based; settings: in vivo, 72 h, dose 2.5-5 mg/kg, time 3 day
[31] = Toxicity in systemic sepsis mouse model infected with Staphylococcus aureus assessed as effect on spleen morphology at 2.5 to 5 mg/kg administered every 12 hrs for 3 days and measured by H and E staining-based assay; format: organism-based; settings: in vivo, 72 h, dose 2.5-5 mg/kg, time 3 day
[32] = Toxicity in systemic sepsis mouse model infected with Staphylococcus aureus assessed as effect on kidney morphology at 2.5 to 5 mg/kg administered every 12 hrs for 3 days and measured by H and E staining-based assay; format: organism-based; settings: in vivo, 72 h, dose 2.5-5 mg/kg, time 3 day

## CCn1c2ccccc2c2cc(/C=N/Nc3ccc4c5c(cccc35)C(=O)N(C(CO)CO)C4=O)ccc21
Staphylococcus aureus [1]
  MIC: 64 µg/mL (≈ 126 µM)
Enterococcus faecalis
  MIC: 8 µg/mL (≈ 15.8 µM)
Staphylococcus aureus [2]
  MIC: 0.25 µg/mL (≈ 0.494 µM)
Staphylococcus aureus [3]
  MIC: 2 µg/mL (≈ 3.95 µM)
Staphylococcus aureus [4]
  MIC: 0.5 µg/mL (≈ 0.987 µM)
Klebsiella pneumoniae
  MIC: 8 µg/mL (≈ 15.8 µM)
Escherichia coli [5]
  MIC: 8 µg/mL (≈ 15.8 µM)
Pseudomonas aeruginosa [6]
  MIC: 64 µg/mL (≈ 126 µM)
Acinetobacter baumannii
  MIC: 64 µg/mL (≈ 126 µM)
Pseudomonas aeruginosa [7]
  MIC: 2 µg/mL (≈ 3.95 µM)
Escherichia coli [8]
  MIC: 128 µg/mL (≈ 253 µM)
[9]
  HC50 at 1 h: 722 µg/mL
[10]
  selectivity ratio: 2890
[11]
  hemolysis at 1 h: < 5%
Staphylococcus aureus [12]
  Activity: Active
Staphylococcus aureus [13]
  inhibition: Active
Staphylococcus aureus [14]
  Activity: Active
Staphylococcus aureus [15]
  Activity: Active
Staphylococcus aureus [16]
  Activity: Active
Staphylococcus aureus [17]
  Activity: Active
Staphylococcus aureus [18]
  Activity: Active
Escherichia coli [19]
  Activity: Active
Staphylococcus aureus [20]
  Activity: Active
Escherichia coli [21]
  Activity: Active
Staphylococcus aureus [22]
  Activity: Active
Staphylococcus aureus [23]
  Activity: Active
Staphylococcus aureus [24]
  Activity: 70%
Staphylococcus aureus [25]
  Activity: Active
Staphylococcus aureus [26]
  Activity: Active
Staphylococcus aureus [27]
  Activity: Active
Staphylococcus aureus [28]
  inhibition: Active
Staphylococcus aureus [29]
  Activity: Active
L929
  Activity: Non-Toxic
[30]
  Activity: Non-Toxic
[31]
  Activity: Non-Toxic
[32]
  Activity: Non-Toxic
